Measurements published in PubChem BioAssay AID248 (DTP/NCI, 2004).
“And” between values parts separate entries of the source, which are not always exact repeats. Equal entries are not always repeated. Inconclusive results and toxic doses are left out.

Tested on: L1210 leukemia ip in BDF1 mice, survival T/C
Test: NCI In Vivo Anticancer Drug Screen. Data for tumor model L1210 Leukemia (intraperitoneal) in B6D2F1 (BDF1) mice
Settings: endpoint: mean survival time, higher = longer survival
In short: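 Tumor cells were implanted, animals were treated, and survival was followed. The result divides the treated measurement by the vehicle-control measurement.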

[1] = dose: 100.0 mg/kg/injection, schedule: Q01DX001 (ip), vehicle: other
[2] = dose: 200.0 mg/kg/injection, schedule: Q01DX001 (ip), vehicle: carboxymethylcellulose (CMC)
[3] = dose: 400.0 mg/kg/injection, schedule: Q01DX001 (ip), vehicle: carboxymethylcellulose (CMC)
[4] = dose: 12.5 mg/kg/injection, schedule: Q01DX009 (ip), vehicle: saline
[5] = dose: 25.0 mg/kg/injection, schedule: Q01DX009 (ip), vehicle: saline
[6] = dose: 50.0 mg/kg/injection, schedule: Q01DX009 (ip), vehicle: saline
[7] = dose: 100.0 mg/kg/injection, schedule: Q01DX009 (ip), vehicle: saline
[8] = dose: 100.0 mg/kg/injection, schedule: Q01DX009 (ip), vehicle: Klucel (hydroxypropylcellulose) (HPC)
[9] = dose: 25.0 mg/kg/injection, schedule: Q04DX003 (ip), vehicle: Klucel (hydroxypropylcellulose) (HPC)
[10] = dose: 50.0 mg/kg/injection, schedule: Q04DX003 (ip), vehicle: Klucel (hydroxypropylcellulose) (HPC)
[11] = dose: 100.0 mg/kg/injection, schedule: Q04DX003 (ip), vehicle: Klucel (hydroxypropylcellulose) (HPC)
[12] = dose: 100.0 mg/kg/injection, schedule: Q04DX003 (ip), vehicle: saline with Tween-80
[13] = dose: 200.0 mg/kg/injection, schedule: Q04DX003 (ip), vehicle: saline with Tween-80

In the case of `O=NN(CCCl)C(=O)NC1CCC(NC(=O)N(CCCl)N=O)CC1` (stereo unspecified), the T/C (dose: 44.0 mg/kg/injection, schedule: Q01DX001 (ip), vehicle: other) is reported as 162 % of control and 286 % of control, the T/C (dose: 63.0 mg/kg/injection, schedule: Q01DX001 (ip), vehicle: carboxymethylcellulose (CMC)) is reported as 247 % of control and the T/C (dose: 67.0 mg/kg/injection, schedule: Q01DX001 (ip), vehicle: other) is reported as 168 % of control and 328 % of control. For the same compound, the T/C (dose: 82.0 mg/kg/injection, schedule: Q01DX001 (ip), vehicle: carboxymethylcellulose (CMC)) was 267 % of control, the T/C [1] was 305 % of control and 314 % of control and the T/C (dose: 125.0 mg/kg/injection, schedule: Q01DX001 (ip), vehicle: carboxymethylcellulose (CMC)) was 310 % of control. The T/C (dose: 127.0 mg/kg/injection, schedule: Q01DX001 (ip), vehicle: carboxymethylcellulose (CMC)) was 342 % of control, the T/C (dose: 150.0 mg/kg/injection, schedule: Q01DX001 (ip), vehicle: other) was 268 % of control and 180 % of control and the T/C (dose: 187.0 mg/kg/injection, schedule: Q01DX001 (ip), vehicle: carboxymethylcellulose (CMC)) was 290 % of control. The T/C (dose: 225.0 mg/kg/injection, schedule: Q01DX001 (ip), vehicle: other) was 285 % of control and 178 % of control, the T/C (dose: 255.0 mg/kg/injection, schedule: Q01DX001 (ip), vehicle: carboxymethylcellulose (CMC)) was 344 % of control and the T/C (dose: 280.0 mg/kg/injection, schedule: Q01DX001 (ip), vehicle: carboxymethylcellulose (CMC)) was 275 % of control. For the same compound, the T/C (dose: 337.0 mg/kg/injection, schedule: Q01DX001 (ip), vehicle: other) was 306 % of control and the T/C (dose: 510.0 mg/kg/injection, schedule: Q01DX001 (ip), vehicle: carboxymethylcellulose (CMC)) was 181 % of control.

In the case of `C=CC/C=C/CCC`, the T/C (dose: 50.0 mg/kg/injection, schedule: Q01DX001 (ip), vehicle: carboxymethylcellulose (CMC)) is reported as 88 % of control, the T/C [2] is reported as 88 % of control and the T/C [3] is reported as 90 % of control.

In the case of `CCN(CC)CCOc1ccc(/C=C(/C(=O)c2ccccc2)c2ccccc2)cc1`, the T/C (dose: 100.0 mg/kg/injection, schedule: Q04DX003 (sc), vehicle: olive oil, sesame oil, peanut oil) is reported as 101 % of control, the T/C (dose: 200.0 mg/kg/injection, schedule: Q04DX003 (sc), vehicle: olive oil, sesame oil, peanut oil) is reported as 101 % of control and the T/C (dose: 400.0 mg/kg/injection, schedule: Q04DX003 (sc), vehicle: olive oil, sesame oil, peanut oil) is reported as 101 % of control.

`COC1C(/C=C/C(C)=O)OC2OC(C)(C)OC21` (stereo unspecified) was tested, and the T/C (dose: 6.25 mg/kg/injection, schedule: Q01DX009 (ip), vehicle: saline) was 105 % of control, the T/C [4] was 105 % of control and the T/C [5] was 107 % of control. The T/C [6] was 98 % of control, the T/C [7] was 100 % of control and the T/C (dose: 200.0 mg/kg/injection, schedule: Q01DX009 (ip), vehicle: saline) was 98 % of control.

With `O=C(Cc1cccc2ccccc12)N/N=C/c1ccccc1Cl` the T/C [8] was 89 % of control and 90 % of control, the T/C (dose: 200.0 mg/kg/injection, schedule: Q01DX009 (ip), vehicle: Klucel (hydroxypropylcellulose) (HPC)) was 92 % of control and the T/C (dose: 400.0 mg/kg/injection, schedule: Q01DX009 (ip), vehicle: Klucel (hydroxypropylcellulose) (HPC)) was 86 % of control and 90 % of control.

`COc1ccc(Cc2ccc(OC)c(OC)c2)cc1OC` was tested, and the T/C (dose: 200.0 mg/kg/injection, schedule: Q04DX003 (ip), vehicle: acetone) was 124 % of control and the T/C (dose: 400.0 mg/kg/injection, schedule: Q04DX003 (ip), vehicle: acetone) was 100 % of control.

For `O=C(NCS(=O)(=O)O)OCc1ccccc1`, the T/C [1] was 98 % of control, the T/C (dose: 100.0 mg/kg/injection, schedule: Q04DX003 (ip), vehicle: other) was 96 % of control and the T/C (dose: 200.0 mg/kg/injection, schedule: Q01DX001 (ip), vehicle: other) was 104 % of control. The T/C (dose: 200.0 mg/kg/injection, schedule: Q04DX003 (ip), vehicle: other) was 102 % of control, the T/C (dose: 400.0 mg/kg/injection, schedule: Q01DX001 (ip), vehicle: other) was 96 % of control and the T/C (dose: 400.0 mg/kg/injection, schedule: Q04DX003 (ip), vehicle: other) was 96 % of control.

In the case of `CCN(CCP(c1ccccc1)c1ccccc1)CCP(c1ccccc1)c1ccccc1`, the T/C (dose: 6.25 mg/kg/injection, schedule: Q01DX009 (ip), vehicle: Klucel (hydroxypropylcellulose) (HPC)) is reported as 120 % of control, the T/C (dose: 19.0 mg/kg/injection, schedule: Q01DX001 (ip), vehicle: other) is reported as 120 % of control and the T/C (dose: 25.0 mg/kg/injection, schedule: Q01DX009 (ip), vehicle: Klucel (hydroxypropylcellulose) (HPC)) is reported as 122 % of control. The T/C [9] was 106 % of control, the T/C (dose: 38.0 mg/kg/injection, schedule: Q01DX001 (ip), vehicle: other) was 112 % of control and the T/C (dose: 50.0 mg/kg/injection, schedule: Q01DX009 (ip), vehicle: Klucel (hydroxypropylcellulose) (HPC)) was 100 % of control and 117 % of control. For the same compound, the T/C [10] was 116 % of control, the T/C [8] was 111 % of control and the T/C [11] was 122 % of control.

In the case of `CC12CCC(O)CC1CCC1C2CCC2(C)C(c3ccc(=O)oc3)CC3OC312` (stereo unspecified), the T/C (dose: 50.0 mg/kg/injection, schedule: Q01DX001 (sc), vehicle: steriod suspending solution) is reported as 105 % of control, the T/C (dose: 100.0 mg/kg/injection, schedule: Q01DX001 (sc), vehicle: steriod suspending solution) is reported as 105 % of control and the T/C (dose: 200.0 mg/kg/injection, schedule: Q01DX001 (sc), vehicle: steriod suspending solution) is reported as 96 % of control. For the same compound, the T/C (dose: 400.0 mg/kg/injection, schedule: Q01DX001 (sc), vehicle: steriod suspending solution) was 100 % of control.

In the case of `COC1OC2COC(C)(C)OC2C1OS(=O)(=O)c1ccc(C)cc1` (stereo unspecified), the T/C (dose: 100.0 mg/kg/injection, schedule: Q01DX001 (ip), vehicle: carboxymethylcellulose (CMC)) is reported as 104 % of control, the T/C [2] is reported as 96 % of control and the T/C [3] is reported as 107 % of control.

With `COc1cc(C)c(C=O)cc1OC` the T/C (dose: 5.0 mg/kg/injection, schedule: Q01DX001 (ip), vehicle: saline) was 103 % of control, the T/C (dose: 10.0 mg/kg/injection, schedule: Q01DX001 (ip), vehicle: saline) was 107 % of control and the T/C (dose: 20.0 mg/kg/injection, schedule: Q01DX001 (ip), vehicle: saline) was 97 % of control. For the same compound, the T/C (dose: 40.0 mg/kg/injection, schedule: Q01DX001 (ip), vehicle: saline) was 101 % of control and the T/C (dose: 80.0 mg/kg/injection, schedule: Q01DX001 (ip), vehicle: saline) was 109 % of control.

In the case of `CCN(CC)C(=O)c1cc([N+](=O)[O-])ccc1OCc1ccccc1`, the T/C (dose: 25.0 mg/kg/injection, schedule: Q04DX002 (ip), vehicle: saline with Tween-80) is reported as 98 % of control, the T/C (dose: 50.0 mg/kg/injection, schedule: Q04DX002 (ip), vehicle: saline with Tween-80) is reported as 98 % of control and the T/C (dose: 100.0 mg/kg/injection, schedule: Q04DX002 (ip), vehicle: saline with Tween-80) is reported as 110 % of control and 91 % of control. The T/C (dose: 200.0 mg/kg/injection, schedule: Q04DX002 (ip), vehicle: saline with Tween-80) was 89 % of control and the T/C (dose: 400.0 mg/kg/injection, schedule: Q04DX002 (ip), vehicle: saline with Tween-80) was 95 % of control.

In the case of `NC(=S)Nc1cccc(Cl)c1`, the T/C [9] is reported as 96 % of control, the T/C [10] is reported as 100 % of control and the T/C [11] is reported as 106 % of control.

For `[Ni+2].[O-]c1ccc(Cl)cc1C=NCc1ccccn1.[O-]c1ccc(Cl)cc1C=NCc1ccccn1`, the T/C [12] was 93 % of control and the T/C [13] was 93 % of control.

`CC[N+](C)(CC)CCOC(=O)c1ccccc1Oc1ccc(C)cc1` was tested, and the T/C (dose: 100.0 mg/kg/injection, schedule: Q04DX003 (ip), vehicle: saline) was 96 % of control.

With `O=[N+]([O-])c1cnccc1Nc1ccncc1` the T/C [12] was 98 % of control and the T/C [13] was 94 % of control.

For `CCOC(=O)C(C(C)=O)C(CCCCO)C(C(C)=O)C(=O)OCC` (stereo unspecified), the T/C (dose: 100.0 mg/kg/injection, schedule: Q01DX001 (ip), vehicle: saline) was 97 % of control, the T/C (dose: 200.0 mg/kg/injection, schedule: Q01DX001 (ip), vehicle: saline) was 101 % of control and the T/C (dose: 400.0 mg/kg/injection, schedule: Q01DX001 (ip), vehicle: saline) was 94 % of control.

`CCCNC(C)C(=O)c1ccccc1` (stereo unspecified) was tested, and the T/C [4] was 93 % of control, the T/C [5] was 97 % of control and the T/C [6] was 108 % of control. For the same compound, the T/C [7] was 86 % of control.

For `O=C(NC(=S)NCc1ccncc1)c1ccccc1`, the T/C (dose: 100.0 mg/kg/injection, schedule: Q04DX002 (ip), vehicle: Klucel (hydroxypropylcellulose) (HPC)) was 100 % of control, the T/C (dose: 200.0 mg/kg/injection, schedule: Q04DX002 (ip), vehicle: Klucel (hydroxypropylcellulose) (HPC)) was 95 % of control and the T/C (dose: 400.0 mg/kg/injection, schedule: Q04DX002 (ip), vehicle: Klucel (hydroxypropylcellulose) (HPC)) was 92 % of control.
